US20170150719A1, “FUNGICIDAL PYRAZOLES AND THEIR MIXTURES” (E I DU PONT DE NEMOURS AND COMPANY, priority 2010, published 2017)

Experiments:
[1] = tested on: Puccinia recondita f. sp. tritici; assay: Test G: wheat leaf rust, spray after inoculation (curative) on wheat seedlings, visual disease rating; format: in vivo; details: sprayed after inoculation, 100 = 100% disease control, 0 = no disease control
Description: (§1) A hyphen (-) indicates no test results.

[2] = tested on: Alternaria solani; assay: Test B: tomato early blight, preventive spray on tomato seedlings, visual disease rating; details: for pest or weed control at 200 µg/mL: Alternaria solani, in Solanum lycopersicum, read-out: Test B rating (disease control); for Test B rating (disease control): tomato early blight, 100 = 100% disease control, 0 = no disease control relative to the controls
[3] = tested on: Septoria tritici; assay: Test F: wheat leaf blotch, preventive spray on wheat seedlings, visual disease rating; format: in vivo; details: 100 = 100% disease control, 0 = no disease control relative to the controls; for pest or weed control at 200 µg/mL: Zymoseptoria tritici
Description: as §1

[4] = tested on: Puccinia recondita f. sp. tritici; assay: Test H: wheat leaf rust, preventive spray on wheat seedlings, visual disease rating; details: 100 = 100% disease control, 0 = no disease control; for pest or weed control at 200 µg/mL: read-out: Test H rating (disease control), wheat leaf rust, sprayed the day before inoculation; for Test H rating (disease control): wheat leaf rust, sprayed the day before inoculation
[5] = tested on: Botrytis cinerea; assay: Test A: tomato Botrytis, preventive spray on tomato seedlings, visual disease rating; details: 100 = 100% disease control, 0 = no disease control relative to the controls; for pest or weed control at 200 µg/mL: Botrytis cinerea, in Solanum lycopersicum, read-out: Test A rating (disease control), tomato Botrytis; for Test A rating (disease control): tomato Botrytis
[6] = tested on: Septoria nodorum; assay: Test E: Septoria glume blotch, preventive spray on wheat seedlings, visual disease rating; details: 100 = 100% disease control, 0 = no disease control relative to the controls; for pest or weed control at 200 µg/mL: Parastagonospora nodorum, in Triticum aestivum, read-out: Test E rating (disease control), Septoria glume blotch; for Test E rating (disease control): Septoria glume blotch
Description: General protocol for preparing test suspensions for Tests A-I: the test compounds were first dissolved in acetone in an amount equal to 3% of the final volume and then suspended at the desired concentration (in ppm) in acetone and purified water (50/50 mix by volume) containing 250 ppm of the surfactant Trem® 014 (polyhydric alcohol esters). The resulting test suspensions were then used in Tests A-I. Each test was conducted in triplicate, and the results were averaged. Spraying a 200 ppm test suspension to the point of run-off on the test plants was the equivalent of a rate of about 800 g/ha. Unless otherwise indicated, the rating values indicate a 200 ppm test suspension was used. (An asterisk “*” next to the rating value indicates a 40 ppm test suspension was used.)
The test suspension was sprayed to the point of run-off on wheat seedlings. The following day the seedlings were inoculated with a spore suspension of Septoria nodorum (the causal agent of Septoria glume blotch) and incubated in a saturated atmosphere at 24° C. for 48 h, and then moved to a growth chamber at 20° C. for 9 days, after which time visual disease ratings were made.

[7] = tested on: Blumeria graminis f. sp. tritici; assay: Test I: wheat powdery mildew, preventive spray on wheat seedlings, visual disease rating; details: 100 = 100% disease control, 0 = no disease control relative to the controls; for pest or weed control at 200 µg/mL: Blumeria graminis, in Triticum aestivum, read-out: Test I rating (disease control), wheat powdery mildew; for Test I rating (disease control): wheat powdery mildew

SMILES	pest or weed control at 200 µg/mL [1]	pest or weed control at 200 µg/mL [2]	pest or weed control at 200 µg/mL [3]	pest or weed control at 200 µg/mL [4]	pest or weed control at 200 µg/mL [5]	pest or weed control at 200 µg/mL [6]	pest or weed control at 200 µg/mL [7]	Test G rating (disease control) [1]	Test B rating (disease control) [2]	Test F rating (disease control) [3]	Test H rating (disease control) [4]	Test A rating (disease control) [5]	Test E rating (disease control) [6]	Test I rating (disease control) [7]
Cc1nn(C)c(Oc2ccc(C#N)cc2F)c1-c1ccc(F)cc1Cl [Compound 33, 4-[[4-(2-chloro-4-fluorophenyl)-1,3-dimethyl-1H-pyrazol-5-yl]oxy]-3-fluorobenzonitrile]	99%	100%	100%	100%	100%	98%	99%							
Cc1nn(C)c(Nc2c(F)cc(F)cc2Cl)c1-c1c(F)cccc1Cl [compound 87]								0%	93%	100%	100%	100%	87%	100%
COc1cc(F)c(Nc2c(-c3ccc(Cl)cc3Cl)c(C)nn2C)c(F)c1 [compound 16]								98%	98%	98%	99%	99%	84%	99%
Cc1nn(C)c(Nc2ccc(F)cc2Br)c1-c1ccc(F)cc1F [Compound 118, N-(2-bromo-4-fluorophenyl)-4-(2,4-difluorophenyl)-1,3-dimethyl-1H-pyrazol-5-amine]	75%	93%	100%	97%	100%	69%	100%							
Cc1nn(C)c(Oc2ccc(C#N)cc2Cl)c1-c1ccc(F)cc1Cl [Compound 37, 3-chloro-4-[[4-(2-chloro-4-fluorophenyl)-1,3-dimethyl-1H-pyrazol-5-yl]oxy]benzonitrile]	69%	86%	100%	99%	100%	100%	100%							
COc1cc(F)c(-c2c(C)nn(C)c2Nc2ccc(F)cc2Cl)c(F)c1 [Compound 23, N-(2-chloro-4-fluorophenyl)-4-(2,6-difluoro-4-methoxyphenyl)-1,3-dimethyl-1H-pyrazol-5-amine]	85%	100%	98%	99%	100%	95%	100%							
Cc1nn(C)c(Oc2c(F)cc(C#N)cc2F)c1-c1ccccc1Cl [compound 75]								0%	99%	100%	99%	100%	99%	98%
Cc1nn(C)c(C(O)c2ccc(F)cc2Cl)c1-c1ccc(F)cc1Cl (stereo not drawn) [Compound 123, α,4-bis(2-chloro-4-fluorophenyl)-1,3-dimethyl-1H-pyrazole-5-methanol]	6%	86%	100%	100%	100%	60%	95%							
COc1ccc(Nc2c(-c3c(F)cccc3F)c(C)nn2C)c(F)c1 [compound 51]								0%	99%	98%	68%	100%	0%	100%
Cc1nn(C)c(Nc2c(Cl)cc(F)cc2Cl)c1-c1ccc(Cl)cc1Cl [compound 132]								0%	0%	99%	96%	93%	0%	43%
Cc1nn(C)c(Oc2ccc(C#N)cc2F)c1-c1c(F)cccc1F [Compound 130, 4-[[4-(2,6-difluorophenyl)-1,3-dimethyl-1H-pyrazol-5-yl]oxy]-3-fluorobenzonitrile]	0%	90%	100%	100%	100%	0%	100%							
COc1cc(F)c(Nc2c(-c3ccccc3F)c(C)nn2C)c(F)c1 [compound 54]								27%	100%	99%	94%	97%	67%	99%
Cc1nn(C)c(Nc2ccc(Br)cc2Cl)c1-c1ccc(F)cc1F [compound 167]								6%	0%	100%	92%	100%	0%	98%
Cc1nn(C)c(Nc2ccc(F)cc2F)c1-c1ccccc1Cl [compound 97]								0%	99%	100%	96%	99%	0%	100%
Cc1nn(C)c(Nc2ccc(Br)cc2Cl)c1-c1ccc(F)cc1Br [compound 173]								0%	0%	100%	99%	100%	40%	99%
Cc1nn(C)c(C(O)c2ccc(F)cc2F)c1-c1ccc(F)cc1Cl (stereo not drawn) [Compound 122, 4-(2-chloro-4-fluorophenyl)-α-(2,4-difluorophenyl)-1,3-dimethyl-1H-pyrazole-5-methanol]	96%	99%	100%	100%	100%	92%	99%							
